Data reported in the supplement of paper PMC10307832.

Key:
Experiment in all cases: relative viability (nuclei count vs DMSO), 5 days (fraction); higher = more cells survive
Bemcentinib + Foretinib = compound: Nc1nc(Nc2ccc3c(c2)CC[C@@H](N2CCCC2)CC3)nn1-c1cc2c(nn1)-c1ccccc1CCC2 [Bemcentinib] + COc1cc2c(Oc3ccc(NC(=O)C4(C(=O)Nc5ccc(F)cc5)CC4)cc3F)ccnc2cc1OCCCN1CCOCC1 [Foretinib] (partner 0.25 µM)
How it was run: (§1)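 Lung cancer cell lines in 1536-well plates were dosed by pin tool the day after seeding, either with one drug alone or with a fixed anchor-drug dose plus five library-drug doses (not always all listed) in √10 steps. After 5 days, cells were fixed and their nuclei stained in one step (final 0.05% Triton X-100, 1% formaldehyde, 1 ug/ml Hoechst), then counted on 4× images. Relative viability is the nuclei count in treated wells divided by that in vehicle wells. Values are medians of duplicate plates.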

Bemcentinib + Lapatinib = compound: Nc1nc(Nc2ccc3c(c2)CC[C@@H](N2CCCC2)CC3)nn1-c1cc2c(nn1)-c1ccccc1CCC2 [Bemcentinib] + CS(=O)(=O)CCNCc1ccc(-c2ccc3ncnc(Nc4ccc(OCc5cccc(F)c5)c(Cl)c4)c3c2)o1 [Lapatinib] (partner 2 µM)
How it was run: as §1

Bemcentinib + Crizotinib = compound: Nc1nc(Nc2ccc3c(c2)CC[C@@H](N2CCCC2)CC3)nn1-c1cc2c(nn1)-c1ccccc1CCC2 [Bemcentinib] + C[C@@H](Oc1cc(-c2cnn(C3CCNCC3)c2)cnc1N)c1c(Cl)ccc(F)c1Cl [Crizotinib] (partner 1 µM)
How it was run: as §1

Axitinib + Bortezomib = compound: CNC(=O)c1ccccc1Sc1ccc2c(/C=C/c3ccccn3)n[nH]c2c1 [Axitinib] + CC(C)C[C@H](NC(=O)[C@H](Cc1ccccc1)NC(=O)c1cnccn1)B(O)O [Bortezomib] (partner 0.002 µM)
How it was run: as §1

In the case of NCI-H358, the relative viability (Bemcentinib + Foretinib; first compound 0.04 µM) is reported as 0.723, the relative viability (Bemcentinib + Foretinib; first compound 0.1265 µM) is reported as 0.827 and the relative viability (Bemcentinib + Foretinib; first compound 0.4 µM) is reported as 0.73. For the same cell line, the relative viability (Bemcentinib + Foretinib; first compound 1.265 µM) was 0.749, the relative viability (Bemcentinib + Foretinib; first compound 4 µM) was 0.853 and the relative viability (Bemcentinib + Lapatinib; first compound 0.04 µM) was 0.496. It also gave a relative viability (Bemcentinib + Lapatinib; first compound 0.1265 µM) of 0.415, a relative viability (Bemcentinib + Lapatinib; first compound 0.4 µM) of 0.373 and a relative viability (Bemcentinib + Lapatinib; first compound 1.265 µM) of 0.531. For the same cell line, the relative viability (Bemcentinib + Lapatinib; first compound 4 µM) was 0.464, the relative viability (Bemcentinib + Crizotinib; first compound 0.04 µM) was 0.587 and the relative viability (Bemcentinib + Crizotinib; first compound 0.1265 µM) was 0.506. It also gave a relative viability (Bemcentinib + Crizotinib; first compound 0.4 µM) of 0.511, a relative viability (Bemcentinib + Crizotinib; first compound 1.265 µM) of 0.54 and a relative viability (Bemcentinib + Crizotinib; first compound 4 µM) of 0.53.

In the case of NCI-H1944, the relative viability (Bemcentinib + Foretinib; first compound 0.04 µM) is reported as 0.876, the relative viability (Bemcentinib + Foretinib; first compound 0.1265 µM) is reported as 0.924 and the relative viability (Bemcentinib + Foretinib; first compound 0.4 µM) is reported as 0.866. For the same cell line, the relative viability (Bemcentinib + Foretinib; first compound 1.265 µM) was 0.951, the relative viability (Bemcentinib + Foretinib; first compound 4 µM) was 0.865 and the relative viability (Bemcentinib + Lapatinib; first compound 0.04 µM) was 0.794. For the same cell line, the relative viability (Bemcentinib + Lapatinib; first compound 0.1265 µM) was 0.909, the relative viability (Bemcentinib + Lapatinib; first compound 0.4 µM) was 0.817 and the relative viability (Bemcentinib + Lapatinib; first compound 1.265 µM) was 0.883. It also gave a relative viability (Bemcentinib + Lapatinib; first compound 4 µM) of 0.887, a relative viability (Bemcentinib + Crizotinib; first compound 0.04 µM) of 1.13 and a relative viability (Bemcentinib + Crizotinib; first compound 0.1265 µM) of 1.11. It also gave a relative viability (Bemcentinib + Crizotinib; first compound 0.4 µM) of 1.17, a relative viability (Bemcentinib + Crizotinib; first compound 1.265 µM) of 1.18 and a relative viability (Bemcentinib + Crizotinib; first compound 4 µM) of 1.1.

NCI-H1792 gave a relative viability (Axitinib + Bortezomib; first compound 0.005 µM) of 1, a relative viability (Axitinib + Bortezomib; first compound 0.01581 µM) of 0.982 and a relative viability (Axitinib + Bortezomib; first compound 0.05 µM) of 0.952. It also gave a relative viability (Axitinib + Bortezomib; first compound 0.1581 µM) of 0.953, a relative viability (Axitinib + Bortezomib; first compound 0.5 µM) of 0.894 and a relative viability (Bemcentinib + Lapatinib; first compound 0.04 µM) of 0.899. It also gave a relative viability (Bemcentinib + Lapatinib; first compound 0.1265 µM) of 0.855, a relative viability (Bemcentinib + Lapatinib; first compound 0.4 µM) of 1.11 and a relative viability (Bemcentinib + Lapatinib; first compound 1.265 µM) of 0.969. For the same cell line, the relative viability (Bemcentinib + Lapatinib; first compound 4 µM) was 0.896, the relative viability (Bemcentinib + Crizotinib; first compound 0.04 µM) was 1.02 and the relative viability (Bemcentinib + Crizotinib; first compound 0.1265 µM) was 1.2. It also gave a relative viability (Bemcentinib + Crizotinib; first compound 0.4 µM) of 1.26, a relative viability (Bemcentinib + Crizotinib; first compound 1.265 µM) of 0.965 and a relative viability (Bemcentinib + Crizotinib; first compound 4 µM) of 0.957.

HCC-44 was tested, and the relative viability (Axitinib + Bortezomib; first compound 0.005 µM) was 0.925, the relative viability (Axitinib + Bortezomib; first compound 0.01581 µM) was 0.859 and the relative viability (Axitinib + Bortezomib; first compound 0.05 µM) was 0.855. It also gave a relative viability (Axitinib + Bortezomib; first compound 0.1581 µM) of 0.89, a relative viability (Axitinib + Bortezomib; first compound 0.5 µM) of 1.01 and a relative viability (Bemcentinib + Lapatinib; first compound 0.04 µM) of 1.06. For the same cell line, the relative viability (Bemcentinib + Lapatinib; first compound 0.1265 µM) was 1.07, the relative viability (Bemcentinib + Lapatinib; first compound 0.4 µM) was 1.14 and the relative viability (Bemcentinib + Lapatinib; first compound 1.265 µM) was 1.1. For the same cell line, the relative viability (Bemcentinib + Lapatinib; first compound 4 µM) was 1.06, the relative viability (Bemcentinib + Crizotinib; first compound 0.04 µM) was 0.832 and the relative viability (Bemcentinib + Crizotinib; first compound 0.1265 µM) was 0.806. The relative viability (Bemcentinib + Crizotinib; first compound 0.4 µM) was 0.864, the relative viability (Bemcentinib + Crizotinib; first compound 1.265 µM) was 0.813 and the relative viability (Bemcentinib + Crizotinib; first compound 4 µM) was 0.852.

NCI-H1623 gave a relative viability (Bemcentinib + Foretinib; first compound 0.04 µM) of 0.857, a relative viability (Bemcentinib + Foretinib; first compound 0.1265 µM) of 0.742 and a relative viability (Bemcentinib + Foretinib; first compound 0.4 µM) of 0.853. It also gave a relative viability (Bemcentinib + Foretinib; first compound 1.265 µM) of 1.01 and a relative viability (Bemcentinib + Foretinib; first compound 4 µM) of 0.934.

SK-MES-1 showed a relative viability (Bemcentinib + Foretinib; first compound 0.04 µM) of 1.11, a relative viability (Bemcentinib + Foretinib; first compound 0.1265 µM) of 0.968 and a relative viability (Bemcentinib + Foretinib; first compound 0.4 µM) of 0.952. It also gave a relative viability (Bemcentinib + Foretinib; first compound 1.265 µM) of 1.11, a relative viability (Bemcentinib + Foretinib; first compound 4 µM) of 1.11 and a relative viability (Bemcentinib + Lapatinib; first compound 0.04 µM) of 0.437. It also gave a relative viability (Bemcentinib + Lapatinib; first compound 0.1265 µM) of 0.447, a relative viability (Bemcentinib + Lapatinib; first compound 0.4 µM) of 0.431 and a relative viability (Bemcentinib + Lapatinib; first compound 1.265 µM) of 0.482. It also gave a relative viability (Bemcentinib + Lapatinib; first compound 4 µM) of 0.511, a relative viability (Bemcentinib + Crizotinib; first compound 0.04 µM) of 1.03 and a relative viability (Bemcentinib + Crizotinib; first compound 0.1265 µM) of 0.955. The relative viability (Bemcentinib + Crizotinib; first compound 0.4 µM) was 0.998, the relative viability (Bemcentinib + Crizotinib; first compound 1.265 µM) was 1.14 and the relative viability (Bemcentinib + Crizotinib; first compound 4 µM) was 1.06.

NCI-H2170 was tested, and the relative viability (Bemcentinib + Foretinib; first compound 0.04 µM) was 0.971, the relative viability (Bemcentinib + Foretinib; first compound 0.1265 µM) was 1.16 and the relative viability (Bemcentinib + Foretinib; first compound 0.4 µM) was 1.02. It also gave a relative viability (Bemcentinib + Foretinib; first compound 1.265 µM) of 1.03, a relative viability (Bemcentinib + Foretinib; first compound 4 µM) of 0.993 and a relative viability (Bemcentinib + Lapatinib; first compound 0.04 µM) of 0.274. It also gave a relative viability (Bemcentinib + Lapatinib; first compound 0.1265 µM) of 0.267, a relative viability (Bemcentinib + Lapatinib; first compound 0.4 µM) of 0.295 and a relative viability (Bemcentinib + Lapatinib; first compound 1.265 µM) of 0.251. For the same cell line, the relative viability (Bemcentinib + Lapatinib; first compound 4 µM) was 0.273, the relative viability (Bemcentinib + Crizotinib; first compound 0.04 µM) was 1.36 and the relative viability (Bemcentinib + Crizotinib; first compound 0.1265 µM) was 1.36. For the same cell line, the relative viability (Bemcentinib + Crizotinib; first compound 0.4 µM) was 1.21, the relative viability (Bemcentinib + Crizotinib; first compound 1.265 µM) was 1.38 and the relative viability (Bemcentinib + Crizotinib; first compound 4 µM) was 1.31.

Cell Line LK-2 has a relative viability (Bemcentinib + Foretinib; first compound 0.04 µM) of 1.51, a relative viability (Bemcentinib + Foretinib; first compound 0.4 µM) of 1.29 and a relative viability (Bemcentinib + Foretinib; first compound 1.265 µM) of 1.35. It also gave a relative viability (Bemcentinib + Foretinib; first compound 4 µM) of 1.49, a relative viability (Bemcentinib + Lapatinib; first compound 0.04 µM) of 0.869 and a relative viability (Bemcentinib + Lapatinib; first compound 0.1265 µM) of 0.908. For the same cell line, the relative viability (Bemcentinib + Lapatinib; first compound 0.4 µM) was 1.07, the relative viability (Bemcentinib + Lapatinib; first compound 1.265 µM) was 0.838 and the relative viability (Bemcentinib + Lapatinib; first compound 4 µM) was 0.891. For the same cell line, the relative viability (Bemcentinib + Crizotinib; first compound 0.04 µM) was 0.217, the relative viability (Bemcentinib + Crizotinib; first compound 0.1265 µM) was 0.186 and the relative viability (Bemcentinib + Crizotinib; first compound 0.4 µM) was 0.252. For the same cell line, the relative viability (Bemcentinib + Crizotinib; first compound 1.265 µM) was 0.224 and the relative viability (Bemcentinib + Crizotinib; first compound 4 µM) was 0.234.

For LCLC-103H, the relative viability (Axitinib + Bortezomib; first compound 0.005 µM) was 1.07, the relative viability (Axitinib + Bortezomib; first compound 0.01581 µM) was 1.07 and the relative viability (Axitinib + Bortezomib; first compound 0.05 µM) was 1.18. The relative viability (Axitinib + Bortezomib; first compound 0.1581 µM) was 1.03, the relative viability (Axitinib + Bortezomib; first compound 0.5 µM) was 1.07 and the relative viability (Bemcentinib + Foretinib; first compound 0.04 µM) was 0.752. It also gave a relative viability (Bemcentinib + Foretinib; first compound 0.1265 µM) of 0.787, a relative viability (Bemcentinib + Foretinib; first compound 0.4 µM) of 0.778 and a relative viability (Bemcentinib + Foretinib; first compound 1.265 µM) of 0.918. For the same cell line, the relative viability (Bemcentinib + Foretinib; first compound 4 µM) was 0.825, the relative viability (Bemcentinib + Crizotinib; first compound 0.04 µM) was 1.05 and the relative viability (Bemcentinib + Crizotinib; first compound 0.1265 µM) was 1.11. The relative viability (Bemcentinib + Crizotinib; first compound 0.4 µM) was 1.04, the relative viability (Bemcentinib + Crizotinib; first compound 1.265 µM) was 1.13 and the relative viability (Bemcentinib + Crizotinib; first compound 4 µM) was 1.11.

With NCI-H1395 the relative viability (Bemcentinib + Foretinib; first compound 0.04 µM) was 0.994, the relative viability (Bemcentinib + Foretinib; first compound 0.1265 µM) was 1.05 and the relative viability (Bemcentinib + Foretinib; first compound 0.4 µM) was 1.04. For the same cell line, the relative viability (Bemcentinib + Foretinib; first compound 1.265 µM) was 0.934, the relative viability (Bemcentinib + Foretinib; first compound 4 µM) was 1.05 and the relative viability (Bemcentinib + Lapatinib; first compound 0.04 µM) was 0.95. The relative viability (Bemcentinib + Lapatinib; first compound 0.1265 µM) was 1.19, the relative viability (Bemcentinib + Lapatinib; first compound 0.4 µM) was 0.999 and the relative viability (Bemcentinib + Lapatinib; first compound 1.265 µM) was 1.06. The relative viability (Bemcentinib + Lapatinib; first compound 4 µM) was 0.897.
